Data from article PMC10436550, “Subacute toxicity evaluations of LPM3480392 in rats, a full µ-opioid receptor biased agonist” (Frontiers in Pharmacology, 2023).

Test system: Sprague Dawley (SD) rats
Test: Organ weight and ratios, 4-week subacute toxicity study
Type: in vivo, rat
Protocol: Complete gross necropsies were conducted on all surviving animals at the end of treatment (the day after the last dosing) and recovery periods. The following selected organs were weighed and evaluated in terms of organ/body or organ/brain weight ratios: brain, kidneys, adrenals, testes, ovaries, uterus, epididymides, thymus, spleen, heart and liver. Paired organs were weighed together. Organ-to-body weight ratio = Organ weight(g)/Body weight(g) × 100%, and Organ-to-brain weight ratio = Organ weight(g)/Brain weight(g) × 100%.

[1] = female rats, 0.6 mg/kg/day, End of dosing phase
[2] = female rats, 0.6 mg/kg/day, End of recovery phase
[3] = female rats, 1.2 mg/kg/day, End of dosing phase
[4] = female rats, 1.2 mg/kg/day, End of recovery phase
[5] = female rats, 2.4 mg/kg/day, End of dosing phase
[6] = female rats, 2.4 mg/kg/day, End of recovery phase
[7] = male rats, 0.6 mg/kg/day, End of dosing phase
[8] = male rats, 0.6 mg/kg/day, End of recovery phase

Fc1ccc([C@]2(CCNCc3cccc(Cl)c3)CCO[C@]3(CCOC3)C2)nc1 [LPM3480392]
Organ weight, Brain [1]: 1.862 ± 0.102 g
Organ weight, Kidney [1]: 1.501 ± 0.123 g
Organ weight, Spleen [1]: 0.646 ± 0.159 g
Organ weight, Thymus [1]: 0.402 ± 0.053 g
Organ-to-body weight ratio, Brain [1]: 0.875 ± 0.063 %
Organ-to-body weight ratio, Kidney [1]: 0.704 ± 0.037%
Organ-to-body weight ratio, Spleen [1]: 0.301 ± 0.065%
Organ-to-body weight ratio, Thymus [1]: 0.189 ± 0.028%
Organ-to-brain weight ratio, Adrenal gland [1]: 3.21 ± 0.59%
Organ-to-brain weight ratio, Kidney [1]: 80.71 ± 6.29%
Organ-to-brain weight ratio, Spleen [1]: 34.73 ± 8.54%
Organ-to-brain weight ratio, Thymus [1]: 21.61 ± 3.02%
Terminal BW [1]: 213.5 ± 15.3 g
Organ weight, Brain [2]: 2.018 ± 0.046 g
Organ weight, Kidney [2]: 1.626 ± 0.142 g
Organ weight, Spleen [2]: 0.530 ± 0.085 g
Organ weight, Thymus [2]: 0.308 ± 0.055 g
Organ-to-body weight ratio, Brain [2]: 0.804 ± 0.031%
Organ-to-body weight ratio, Kidney [2]: 0.647 ± 0.043%
Organ-to-body weight ratio, Spleen [2]: 0.210 ± 0.030%
Organ-to-body weight ratio, Thymus [2]: 0.122 ± 0.019%
Organ-to-brain weight ratio, Adrenal gland [2]: 2.91 ± 0.20%
Organ-to-brain weight ratio, Kidney [2]: 80.51 ± 6.21%
Organ-to-brain weight ratio, Spleen [2]: 26.23 ± 4.03%
Organ-to-brain weight ratio, Thymus [2]: 15.21 ± 2.43%
Terminal BW [2]: 251.2 ± 9.7 g
Organ weight, Brain [3]: 1.916 ± 0.096 g
Organ weight, Kidney [3]: 1.518 ± 0.127 g
Organ weight, Spleen [3]: 0.637 ± 0.078 g
Organ weight, Thymus [3]: 0.380 ± 0.046 g
Organ-to-body weight ratio, Brain [3]: 0.881 ± 0.039 %
Organ-to-body weight ratio, Kidney [3]: 0.697 ± 0.044%
Organ-to-body weight ratio, Spleen [3]: 0.294 ± 0.042%
Organ-to-body weight ratio, Thymus [3]: 0.175 ± 0.026%
Organ-to-brain weight ratio, Adrenal gland [3]: 2.89 ± 0.37%
Organ-to-brain weight ratio, Kidney [3]: 79.14 ± 3.61%
Organ-to-brain weight ratio, Spleen [3]: 33.29 ± 3.96%
Organ-to-brain weight ratio, Thymus [3]: 19.90 ± 2.88%
Terminal BW [3]: 217.8 ± 15.0 g
Organ weight, Brain [4]: 1.990 ± 0.086 g
Organ weight, Kidney [4]: 1.567 ± 0.165 g
Organ weight, Spleen [4]: 0.574 ± 0.056 g
Organ weight, Thymus [4]: 0.297 ± 0.056 g
Organ-to-body weight ratio, Brain [4]: 0.802 ± 0.031%
Organ-to-body weight ratio, Kidney [4]: 0.630 ± 0.037%
Organ-to-body weight ratio, Spleen [4]: 0.231 ± 0.016%
Organ-to-body weight ratio, Thymus [4]: 0.120 ± 0.023%
Organ-to-brain weight ratio, Adrenal gland [4]: 2.68 ± 0.38%
Organ-to-brain weight ratio, Kidney [4]: 78.65 ± 6.18%
Organ-to-brain weight ratio, Spleen [4]: 28.83 ± 2.34%
Organ-to-brain weight ratio, Thymus [4]: 14.89 ± 2.48%
Terminal BW [4]: 248.4 ± 12.5 g
Organ weight, Brain [5]: 1.958 ± 0.105 g
Organ weight, Kidney [5]: 1.549 ± 0.122 g
Organ weight, Spleen [5]: 0.616 ± 0.144 g
Organ weight, Thymus [5]: 0.339 ± 0.075 g
Organ-to-body weight ratio, Brain [5]: 0.943 ± 0.055%
Organ-to-body weight ratio, Kidney [5]: 0.746 ± 0.049%
Organ-to-body weight ratio, Spleen [5]: 0.294 ± 0.049%
Organ-to-body weight ratio, Thymus [5]: 0.162 ± 0.031%
Organ-to-brain weight ratio, Adrenal gland [5]: 2.88 ± 0.24%
Organ-to-brain weight ratio, Kidney [5]: 79.23 ± 6.43%
Organ-to-brain weight ratio, Spleen [5]: 31.37 ± 6.57%
Organ-to-brain weight ratio, Thymus [5]: 17.23 ± 3.33%
Terminal BW [5]: 208.0 ± 14.6 g
Organ weight, Brain [6]: 2.075 ± 0.093 g
Organ weight, Kidney [6]: 1.554 ± 0.133 g
Organ weight, Spleen [6]: 0.502 ± 0.064 g
Organ weight, Thymus [6]: 0.331 ± 0.135 g
Organ-to-body weight ratio, Brain [6]: 0.856 ± 0.093%
Organ-to-body weight ratio, Kidney [6]: 0.637 ± 0.024%
Organ-to-body weight ratio, Spleen [6]: 0.206 ± 0.027%
Organ-to-body weight ratio, Thymus [6]: 0.135 ± 0.047%
Organ-to-brain weight ratio, Adrenal gland [6]: 2.71 ± 0.42%
Organ-to-brain weight ratio, Kidney [6]: 75.09 ± 8.25%
Organ-to-brain weight ratio, Spleen [6]: 24.11 ± 2.01%
Organ-to-brain weight ratio, Thymus [6]: 16.14 ± 7.16%
Terminal BW [6]: 244.2 ± 24.2 g
Organ weight, Adrenal gland [7]: 0.052 ± 0.011 g
Organ weight, Brain [7]: 2.094 ± 0.050 g
Organ weight, Epididymis [7]: 0.977 ± 0.089 g
Organ weight, Heart [7]: 1.289 ± 0.102 g
Organ weight, Liver [7]: 8.125 ± 0.587 g
Organ weight, Spleen [7]: 0.741 ± 0.128 g
Organ weight, Thymus [7]: 0.477 ± 0.062 g
Organ-to-body weight ratio, Adrenal gland [7]: 0.016 ± 0.003%
Organ-to-body weight ratio, Brain [7]: 0.650 ± 0.035%
Organ-to-body weight ratio, Epididymis [7]: 0.303 ± 0.028%
Organ-to-body weight ratio, Heart [7]: 0.399 ± 0.028 %
Organ-to-body weight ratio, Liver [7]: 2.516 ± 0.108%
Organ-to-body weight ratio, Spleen [7]: 0.229 ± 0.030%
Organ-to-body weight ratio, Thymus [7]: 0.147 ± 0.016%
Organ-to-brain weight ratio, Adrenal gland [7]: 2.50 ± 0.58%
Organ-to-brain weight ratio, Epididymis [7]: 46.67 ± 4.12%
Organ-to-brain weight ratio, Heart [7]: 61.61 ± 5.76%
Organ-to-brain weight ratio, Liver [7]: 388.28 ± 30.51%
Organ-to-brain weight ratio, Spleen [7]: 35.42 ± 6.22%
Organ-to-brain weight ratio, Thymus [7]: 22.74 ± 2.77%
Terminal BW [7]: 322.9 ± 16.9 g
Organ weight, Adrenal gland [8]: 0.057 ± 0.008 g
Organ weight, Brain [8]: 2.262 ± 0.071 g
Organ weight, Epididymis [8]: 1.432 ± 0.140 g
